# In patent US8207146B2, “Phenothiazine derivative having a double bond, method for the production thereof, and use thereof as a pharmaceutical” (Sanofi-Aventis, priority 2007, dated 2012):
# Target: T1, Human glucokinase (Homo sapiens, UniProt P35557)
# T1 sequence (P35557 6-464 isoform P35557-3 limits assumed): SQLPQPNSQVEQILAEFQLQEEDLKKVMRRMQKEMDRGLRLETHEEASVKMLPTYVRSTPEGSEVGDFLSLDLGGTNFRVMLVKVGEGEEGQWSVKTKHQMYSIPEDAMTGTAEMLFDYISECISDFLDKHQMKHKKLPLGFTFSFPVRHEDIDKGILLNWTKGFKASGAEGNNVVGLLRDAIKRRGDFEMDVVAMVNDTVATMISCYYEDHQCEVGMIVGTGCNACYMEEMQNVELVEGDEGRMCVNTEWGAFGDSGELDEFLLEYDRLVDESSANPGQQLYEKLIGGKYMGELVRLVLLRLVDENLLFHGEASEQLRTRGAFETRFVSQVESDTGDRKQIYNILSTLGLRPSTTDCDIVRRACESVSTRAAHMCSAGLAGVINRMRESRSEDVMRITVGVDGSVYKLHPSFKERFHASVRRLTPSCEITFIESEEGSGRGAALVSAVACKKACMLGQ
# Conditions: 5 mM glucose; for EC150: concentration of test compound which increases the enzymatic activity by 50%, 1 mM ATP, 25° C., pH 7; for Fold induction: maximum fold stimulation: highest change in extinction in the range 0.1-100 μM relative to change without test substance
Structure (SMILES),EC150,Fold induction
"CN1c2ccccc2S(=O)(=O)c2ccc(/C(=C\C3CCCC3)C(=O)Nc3ccn(C)n3)cc21 [Example 1, (E)-3-cyclopentyl-2-(10-methyl-5,5-dioxo-5,10-dihydrophenothiazin-2-yl)-N-(1-methyl-1H-pyrazol-3-yl)acrylamide]",1.70 µM,3.2
"COc1ccc2nc(NC(=O)/C(=C/C3CCC(=O)CC3)c3ccc4c(c3)Nc3ccccc3S4(=O)=O)sc2n1 [Example 4, (E)-2-(5,5-dioxo-5,10-dihydrophenothiazin-2-yl)-N-(5-methoxythiazolo[5,4-b]pyridin-2-yl)-3-(4-oxocyclohexyl)acrylamide]",0.2 µM,4.8
